Measured values reported in paper PMC4081582, “Enhancing Effect of Borneol and Muscone on Geniposide Transport across the Human Nasal Epithelial Cell Monolayer” (PLoS ONE, 2014).

How the values were obtained:
Assay type in all cases: cell-based, human
actin = experiment: Actin immunostaining of HNEC monolayer (tight junction); details: 3 h exposure with geniposide 50 µg·mL^−1, vs control
Source text: Cells cultured on 12-well polyester membrane Transwell clear inserts were stained for actin. […] Fluorescence was visualized on an epifluorescence microscope (IX-71, Olympus, Japan) using a blue filter and images were taken using the analysis software.

HNECs = experiment: Membrane fluidity of HNECs by FRAP
Procedure: The cells were seeded on cell plate at a density of 5×10^4 cells·cm^−2. The above formulation groups were added and the plates were incubated for 3 h at 37 °C in a 5% CO2 incubator. Cells were rinsed with HBSS and stained with NBD-C6-HPC at 2 µg·mL^−1 for 30 min.
A method of fluorescence recovery after photobleaching (FRAP) was used here. After the definition of line scanning position, length and photobleaching position, the monolayer was visualized by a Confocal Laser Scanning Microscope under the following conditions: excitation wavelength of 488 nm, emission wavelength of 530 nm, laser power for fluorescence bleaching of 100%, bleaching time of 0.7 s, scanning frequency of 1.65 s and the total scanning time of 100 s. The fluorescence intensity time-variation at the photobleaching position was recorded and image formation was obtained by confocal tomoscanning.
The membrane fluidity was represented by fluorescence recovery rate (R) which was calculated with the following equation (4): [drawing 4] where F0 is the instant fluorescence value after photobleaching, F1 is the fluorescence value before photobleaching and F2 is the fluorescence recovery value after photobleaching.

HNEC monolayer = experiment: TEER measurement of HNEC monolayer
Procedure: Transepithelial electrical resistance was measured using an EVOM instrument (Millipore Corporation, USA) to check the monolayer integrity. The TEER of untreated cells and cells treated with borneol and muscone was determined in BEGM:DMEM/F12 (1∶1) before the experiment, after the experiment and after 24 h.

SMILES: C[C@@H]1CCCCCCCCCCCCC(=O)C1 [muscone, Muscone]
- levels of the TJ proteins localized in the cell-cell junctions (actin): decreased
- Fluorescence recovery rate R (%)±SD (HNECs; Mu 4.17 µg·mL^−1 with Ge 50 µg·mL^−1, 3 h): 36.43±3.37%
- Fluorescence recovery rate R (%)±SD (HNECs; Mu 8.34 µg·mL^−1 with Ge 50 µg·mL^−1, 3 h): 45.45±1.68 %
- Fluorescence recovery rate R (%)±SD (HNECs; Mu 16.68 µg·mL^−1 with Ge 50 µg·mL^−1, 3 h): 49.77±5.63 %
- TEER after washing and incubating with BEGM:DMEM/F12 (1∶1) for 24 h (HNEC monolayer; after permeation experiment): increased again
- TEER decrease during permeation studies, of the initial value (HNEC monolayer; borneol 55.6, 111.2 µg·mL^−1, muscone 8.34, 16.68 µg·mL^−1, and combinations, P<0.05): 10–20%
